In PubChem BioAssay (NCI):
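Dose response: 5 concentrations. Exposure: 48 h. Format: 96-well plates. Endpoint: linear interpolation; highest concentration if not reached. At the TGI there is no net growth.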

Assays:
Assay in all cases: NCI tumour cell line growth inhibition, 48 h
P388/ADR leukemia = test system: P388/ADR leukemia
SNB-78 CNS = test system: SNB-78 CNS
DLD-1 colon = test system: DLD-1 colon
HOP-18 NSCLC = test system: HOP-18 NSCLC
XF 498 CNS = test system: XF 498 CNS
SN12K1 renal = test system: SN12K1 renal
P388 leukemia = test system: P388 leukemia
DMS 114 small cell lung = test system: DMS 114 small cell lung
LXFL 529 NSCLC = test system: LXFL 529 NSCLC

Row | Compound | TGI (P388/ADR leukemia) | TGI (SNB-78 CNS) | TGI (DLD-1 colon) | TGI (HOP-18 NSCLC) | TGI (XF 498 CNS) | TGI (SN12K1 renal) | TGI (P388 leukemia) | TGI (DMS 114 small cell lung) | TGI (LXFL 529 NSCLC)
1 | C#CC[C@@]12CC(=O)C[C@@H]1CCC1(C2)OCCO1 (tested in a mixture with another compound) | > 75 µM | > 100 µM | > 100 µM | > 100 µM | > 100 µM | > 100 µM | > 59.7 µM |  | 
2 | O=C(CCN1CCOCC1)/C(=C/c1ccccc1)c1ccccc1 | 3.99 µM | 21.3 µM | 4.04 µM | 30.6 µM | 19.1 µM | 10.9 µM | 12.4 µM | 12 µM | 
3 | CC(C(=O)OCc1ccccc1)N(Cc1ccccc1)Cc1ccccc1 (configuration not stated) |  | > 100 µM | > 100 µM |  | 77.7 µM |  |  | > 100 µM | > 100 µM
4 | O=C(O)CCC(=O)OCN1C(=O)C2C3C=CC(C2C1=O)C1C2C(=O)N(COC(=O)CCC(=O)O)C(=O)C2C31 (configuration not stated) |  | > 100 µM | > 100 µM | > 100 µM | > 100 µM |  |  | > 67.9 µM | > 100 µM
5 | COc1ccccc1OCC(COC(=O)Nc1ccccc1)OC(=O)Nc1ccccc1 (configuration not stated) |  | > 100 µM | > 100 µM | > 100 µM | > 100 µM |  |  | > 100 µM | > 100 µM
